Here are results for 24 compounds from patent US20240182445A1 (ONO PHARMACEUTICAL CO., LTD., priority 2019, published 2024).

The term IC50 denotes the point on the concentration scale where inhibition reaches its midpoint. Higher therefore signals weaker potency in that assay. In general, inhibition refers to the drop in the measured response relative to a control, in per cent.

The target in one assay is T1, human TREK-1 (Homo sapiens, UniProt O95069).
T1 construct: expressed in transfected cells
T1 sequence (O95069 1-426): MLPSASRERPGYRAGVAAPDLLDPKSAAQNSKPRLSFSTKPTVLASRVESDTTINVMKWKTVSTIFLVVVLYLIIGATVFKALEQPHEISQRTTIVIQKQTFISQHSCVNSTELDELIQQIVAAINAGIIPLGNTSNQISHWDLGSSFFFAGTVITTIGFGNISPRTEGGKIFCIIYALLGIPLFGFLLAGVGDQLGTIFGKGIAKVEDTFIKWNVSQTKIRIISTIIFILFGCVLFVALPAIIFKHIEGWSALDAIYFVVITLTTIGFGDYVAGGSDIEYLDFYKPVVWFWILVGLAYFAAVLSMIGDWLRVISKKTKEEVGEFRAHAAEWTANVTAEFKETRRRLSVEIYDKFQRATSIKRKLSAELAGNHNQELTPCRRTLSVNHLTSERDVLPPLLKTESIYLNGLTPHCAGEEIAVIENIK
Nature of the assay: TREK-1 Thallium (Tl+) flux assay, Method 1. It is filed as cell-based. Particulars: TREK-1 Thallium (Tl+) flux assay, Method 1. The method in brief: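 Readout: Thallos fluorescence ratio, taken 25 s post-thallium relative to the pre-thallium baseline average, then converted to % inhibition. Cells were CHO-K1 stably expressing human TREK-1, dye-loaded and exposed to test compound (vehicle 0.3% DMSO) for 10 min prior to thallium stimulation.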
Take `COc1ccc(-c2cnc(NC(=O)c3c(Cl)cnn3C3CCN(C(C)=O)CC3)c(C)c2)cc1Cl` [Compound 434, 1-(1-acetylpiperidin-4-yl)-4-chloro-N-(5-(3-chloro-4-methoxyphenyl)-3-methylpyridin-2-yl)-1H-pyrazole-5-carboxamide]: the IC50 is 7.43 µM. This lies in the single-digit micromolar range.
`Cc1cc(OCc2ccccc2)ccc1NC(=O)c1c(Cl)cnn1C1CCN(C(=O)OC(C)(C)C)CC1` [Compound 430, tert-butyl 4-(5-((4-(benzyloxy)-2-methylphenyl)carbamoyl)-4-chloro-1H-pyrazol-1-yl)piperidine-1-carboxylate] displayed an IC50 of 6.35 µM.
The same measure, in the same setting: the figure for `Cc1cc(OCc2ccccc2)ccc1NC(=O)c1c(Cl)cnn1C1CCN(C(=O)C(C)(C)C)CC1` [Compound 405, N-(4-(benzyloxy)-2-methylphenyl)-4-chloro-1-(1-pivaloylpiperidin-4-yl)-1H-pyrazole-5-carboxamide] is 2.31 µM.

Still in this assay, the particulars now being: TREK-1 Thallium (Tl+) flux assay; no *^12 (Method 2) mark on these rows.
Compound `O=C(Nc1ncc(C#Cc2ccccc2)cc1F)c1c(Cl)cnn1C[C@@H]1C[C@H]2CC[C@@H]1O2` (racemic) [Compound 319, 4-chloro-N-[3-fluoro-5-(phenylethynyl)pyridin-2-yl]-1-{[(1S,2S,4R)-7-oxabicyclo[2.2.1]heptan-2-yl]methyl}-1H-pyrazole-5-carboxamide and 4-chloro-N-[3-fluoro-5-{[(1R,2R,4S)-7-oxabicyclo[2.2.1]heptan-2-yl)methyl}-1H-pyrazole-5-carboxamide] registered an IC50 of 0.62 µM.
On the same count and under the same terms, under `Cc1cc(C#Cc2ccccc2)cnc1NC(=O)c1c(Cl)cnn1CCN1CCN(C(=O)OC(C)(C)C)CC1` [Compound 323, tert-butyl 4-(2-(4-chloro-5-((3-methyl-5-(phenylethynyl)pyridin-2-yl)carbamoyl)-1H-pyrazol-1-yl)ethyl)piperazine-1-carboxylate] stands 0.63 µM; under `CC(=O)N1CC[C@@H](n2ncc(Cl)c2C(=O)Nc2ncc(C#Cc3ccccc3)cc2C)C1` [Compound 202, (R)-1-(1-acetylpyrrolidin-3-yl)-4-chloro-N-(3-methyl-5-(phenylethynyl)pyridin-2-yl)-1H-pyrazole-5-carboxamide], 0.31 µM.
Still for that read-out and setting: the figure for `Cc1cc(C#Cc2ccc(F)cc2)cnc1NC(=O)c1c(Cl)cnn1CC1CCCN(C(=O)C(C)C)C1` (stereo not drawn) [Compound 272, 4-chloro-N-(5-((4-fluorophenyl)ethynyl)-3-methylpyridin-2-yl)-1-((1-isobutyrylpiperidin-3-yl)methyl)-1H-pyrazole-5-carboxamide] is 0.46 µM.
`Cc1cc(C#Cc2ccccc2)cnc1NC(=O)c1c(Cl)cnn1CC1COCC1C` (stereo not drawn) [Compound 281, 4-chloro-N-(3-methyl-5-(phenylethynyl)pyridin-2-yl)-1-((4-methyltetrahydrofuran-3-yl)methyl)-1H-pyrazole-5-carboxamide] yielded a half-maximal inhibitory concentration (IC50) of 0.49 µM.
On the same count and under the same terms, under `CC(=O)N1CC[C@@H](Cn2ncc(Cl)c2C(=O)Nc2ncc(C#Cc3ccc(F)cc3)cc2C)[C@H](F)C1` [Compound 341, 1-(((3S,4S)-1-acetyl-3-fluoropiperidin-4-yl)methyl)-4-chloro-N-(5-((4-fluorophenyl)ethynyl)-3-methylpyridin-2-yl)-1H-pyrazole-5-carboxamide] stands 0.74 µM.
On the same count and under the same terms, the figure for `Cc1cc(C#Cc2ccc(F)cc2)cnc1NC(=O)c1c(Cl)cnn1C1CC2(CCN(C(=O)C3CC3)C2)C1` (single isomer, unassigned) [Compound 363, 4-chloro-1-[(2s,4r)-6-(cyclopropanecarbonyl)-6-azaspiro[3.4]octan-2-yl]-N-{5-[(4-fluorophenyl)ethynyl]-3-methylpyridin-2-yl}-1H-pyrazole-5-carboxamide or 4-chloro-1-[(2r,4s)-6-(cyclopropanecarbonyl)-6-azaspiro[3.4]octan-2-yl]-N-{5-[(4-fluorophenyl)ethynyl]-3-methylpyridin-2-yl}-1H-pyrazole-5-carboxamide] is 0.91 µM; for `O=C(Nc1ncc(C#Cc2ccccc2)cc1F)c1c(Cl)cnn1CC1CCOC1` (stereo not drawn) [Compound 217, 4-chloro-N-(3-fluoro-5-(phenylethynyl)pyridin-2-yl)-1-((tetrahydrofuran-3-yl)methyl)-1H-pyrazole-5-carboxamide] it is 0.34 µM.
The same measure, in the same setting: the figure for `O=C(Nc1ncc(C#Cc2ccccc2)cc1F)c1c(Cl)cnn1C1CCN(C(=O)C2CCCC2)CC1` [Compound 299, 4-chloro-1-(1-(cyclopentanecarbonyl)piperidin-4-yl)-N-(3-fluoro-5-(phenylethynyl)pyridin-2-yl)-1H-pyrazole-5-carboxamide] is 0.54 µM; for `Cc1cc(C#Cc2ccccc2)cnc1NC(=O)c1c(Cl)cnn1-c1ccc2occc2c1` [Compound 304, 1-(benzofuran-5-yl)-4-chloro-N-(3-methyl-5-(phenylethynyl)pyridin-2-yl)-1H-pyrazole-5-carboxamide] it is 0.57 µM; for `CC(=O)N1CC2CC(C1)C2Cn1ncc(Cl)c1C(=O)Nc1ncc(C#Cc2ccccc2)cc1F` (stereo not drawn) [Compound 326, 1-((3-acetyl-3-azabicyclo[3.1.1]heptan-6-yl)methyl)-4-chloro-N-(3-fluoro-5-(phenylethynyl)pyridin-2-yl)-1H-pyrazole-5-carboxamide] it is 0.64 µM.

Staying with this assay, now noted: TREK-1 Thallium (Tl+) flux assay; values without footnote *12 are Method 1.
`Cc1cc(C#Cc2cccc(F)c2)cnc1NC(=O)c1c(Cl)cnn1C1CCN(C(=O)C2CC2)CC1` [Compound 143, 4-chloro-1-(1-(cyclopropanecarbonyl)piperidin-4-yl)-N-(5-((3-fluorophenyl)ethynyl)-3-methylpyridin-2-yl)-1H-pyrazole-5-carboxamide] displayed an IC50 of 0.23 µM.
Turning to `Cc1cc(C#Cc2ccccc2)cc(F)c1NC(=O)c1c(Cl)cnn1C1CC(C#N)C1` (stereo not drawn) [Compound 194, 4-chloro-1-(3-cyanocyclobutyl)-N-(2-fluoro-6-methyl-4-(phenylethynyl)phenyl)-1H-pyrazole-5-carboxamide], it took 0.3 µM to reach half-maximal inhibition (IC50).
`CC(=O)N1CC[C@H](n2ncc(Cl)c2C(=O)Nc2ncc(C#Cc3ccccc3)cc2C)C[C@@H]1C` (single isomer, unassigned) [Compound 114, 1-[(2S,4S)-1-acetyl-2-methylpiperidin-4-yl]-4-chloro-N-[3-methyl-5-(phenylethynyl)pyridin-2-yl]-1H-pyrazole-5-carboxamide or 1-[(2R,4R)-1-acetyl-2-methylpiperidin-4-yl]-4-chloro-N-[3-methyl-5-(phenylethynyl)pyridin-2-yl]-1H-pyrazole-5-carboxamide] showed an IC50 of 0.2 µM.
Still for that read-out and setting: under `CC(=O)N1CC[C@@H](n2ncc(Cl)c2C(=O)Nc2ncc(C#Cc3ccccc3)cc2C)C[C@@H]1C` (single isomer, unassigned) [Compound 86, 1-[(2S,4R)-1-acetyl-2-methylpiperidin-4-yl]-4-chloro-N-[3-methyl-5-(phenylethynyl)pyridin-2-yl]-1H-pyrazole-5-carboxamide or 1-[(2R,4S)-1-acetyl-2-methylpiperidin-4-yl]-4-chloro-N-[3-methyl-5-(phenylethynyl)pyridin-2-yl]-1H-pyrazole-5-carboxamide] stands 0.17 µM; under `O=C(Nc1ncc(C#Cc2cccc(F)c2)cc1F)c1c(Cl)cnn1CC1CCOCC1` [Compound 50, 4-chloro-N-(3-fluoro-5-((3-fluorophenyl)ethynyl)pyridin-2-yl)-1-((tetrahydro-2H-pyran-4-yl)methyl)-1H-pyrazole-5-carboxamide], 0.14 µM.
In turn, `Cc1cc(C#Cc2ccc(F)cc2)cnc1NC(=O)c1c(Cl)cnn1C1CCN(C(=O)C2CC2)CC1` [Compound 101, 4-chloro-1-(1-(cyclopropanecarbonyl)piperidin-4-yl)-N-(5-((4-fluorophenyl)ethynyl)-3-methylpyridin-2-yl)-1H-pyrazole-5-carboxamide] returned an IC50 of 0.19 µM.
The same measure, in the same setting: the figure for `CC(=O)N1CC[C@H](Cn2ncc(Cl)c2C(=O)Nc2ncc(C#Cc3ccccc3)cc2F)[C@H](F)C1` [Compound 48, 1-(((3S,4R)-1-acetyl-3-fluoropiperidin-4-yl)methyl)-4-chloro-N-(3-fluoro-5-(phenylethynyl)pyridin-2-yl)-1H-pyrazole-5-carboxamide] is 0.13 µM; for `CC(=O)N1CCC(n2ncc(Cl)c2C(=O)Nc2c(F)cc(C#Cc3ccccc3)cc2F)CC1` [Compound 33, 1-(1-acetylpiperidin-4-yl)-4-chloro-N-(2,6-difluoro-4-(phenylethynyl)phenyl)-1H-pyrazole-5-carboxamide] it is 0.11 µM; for `CCNC(=O)N1CCC(n2ncc(Cl)c2C(=O)Nc2ncc(C#Cc3cccc(F)c3)cc2C)CC1` [Compound 75, 4-(4-chloro-5-((5-((3-fluorophenyl)ethynyl)-3-methylpyridin-2-yl)carbamoyl)-1H-pyrazol-1-yl)-N-ethylpiperidine-1-carboxamide] it is 0.16 µM.

The same assay, now with this note: read-out: Tl^+ Assay % inhibition at 30 uM (Minus value indicates activation of TREK-1); at 30 uM; CHO-K1 cells stably expressing human TREK-1; minus = activation.
In the case of `CC(=O)N1CCC(CCn2cc(Cl)c(C(=O)Nc3ncc(C#Cc4ccccc4F)cc3C)n2)CC1` [Compound 445, 1-(2-(1-acetylpiperidin-4-yl)ethyl)-4-chloro-N-(5-((2-fluorophenyl)ethynyl)-3-methylpyridin-2-yl)-1H-pyrazole-3-carboxamide], the inhibition at 30 µM is -115%.
